Assay results taken from patent publication US20240024262A1, “USE OF VALERIC ACID IN PREPARATION OF DRUG FOR PREVENTING AND TREATING DIABETES” (Harbin Medical University, priority 2022, published 2024).

Tests used:
Assay type in all cases: in vivo
[1] = test system: High-fat fed C57BL6/J mice; assay: High-fat fed C57BL/6J mice, valeric acid gavage: body weight, food intake, blood glucose homeostasis (OGTT)
Excerpt: In an animal experiment of high-fat model mice at a first stage, 6-8-week-old male C57BL/6J mice without specific pathogens (SPF grade) are firstly purchased from Liaoning Changsheng Biotechnology Co., Ltd., Experimental animal feeds are ordered from Beijing keaoxieli Feed Co., Ltd., including a mouse AIN-93M maintenance feed and a high-fat feed with a fat energy supply ratio of 45%; the nutrient compositions of the two feeds are in accordance with a rodent experimental animal feed formula recommended by U.S. Department of agriculture; and the AIN-93M maintenance feed is stored at a room temperature, and the high-fat feed with the energy supply ratio of 45% is stored at the low temperature of −20° C.
The animal experimental research was implemented in accordance with the rules and regulations required by Experimental Animal Management Committee of Harbin Medical University, and animals were raised in a laboratory of Clean Experimental Animal Center of School of Public Health of Harbin Medical University. The laboratory conditions are as follows: a temperature is 21.0 (±1.5) degrees Celsius, a relative humidity is 50 (±5)%, lighting is alternately performed for 12:12 hours by using a fluorescent lamp, the feed is freely taken, and distilled water is freely drunk. After being received, 6-8-week-old C57BL6/J mice as a kind of SPF experimental animals were fed in a single cage, and were arranged to freely drink the distilled water and uptake an animal feed for a week of adaptive feeding. Subsequently, the mice were weighed and randomly divided into 4 experimental groups according to the weights of the mice; and the 4 experimental groups were fed with the AIN-93M maintenance feed and the 45% high-fat feed respectively, and were treated with phosphate buffer salt solution (PBS) and different metabolite solutions by oral gavage. […]
During the feeding period of experimental animals, a scattered food amount and a leftover food amount of mice were weighed with an electronic scale and recorded and fresh feeds were changed every day, and a daily food intake was calculated. […] The weights of the mice were weighed and recorded once a week, and a clean animal bedding subjected to high-pressure disinfection was replaced. […] According to conversion of oral and intravenous doses in Pharmacological Experimental Methodology edited by Shuyun Xu and an equivalent dose ratio of rats and mice, a dose of the valeric acid is finally determined as 75 mg/kg which is approximately equal to ⅛ of a half lethal dose of the valeric acid, meeting a safety range in toxicology. […]

[2] = Serum tumor markers CEA and CA19-9 by ECLIA in high-fat fed mice
Excerpt: Finally, to detect whether tumor invasion was caused during intervention or not, contents of a carbohydrate antigen (CA 19-9) and a carcinoembryonic antigen (CEA) in mouse serum were detected and compared by using automatic electrochemiluminescence immunoassay system Cobas® 8000 (Roche, USA) and electrochemiluminescence immunoassay (ECLIA).

[3] = test system: Leptin receptor gene deficient db/db mice; assay: Type 2 diabetes model db/db mice: food intake, body weight, blood glucose-related indexes
Protocol: The following drugs are taken as comparative examples: • 1. Comparative example where an existing drug serves as a positive control • (1) High-fat fed C57BL6/J mice • Sodium butyrate gavage intervention group: 75.0 mg/kg • (2) Type 2 diabetes model db/db mice • Sodium butyrate gavage intervention group: 75.0 mg/kg • Harmine gavage intervention group: 10.0 mg/kg • Metformin gavage intervention group: 100.0 mg/kg • (3) Cell line of mouse insulinoma islet β cells (Beta-TC-6) • Sodium butyrate intervention group: 1.0 mmol/L • Harmine intervention group: 10.0 μmmol/L • (4) Mouse islet β primary cell • Sodium butyrate intervention group: 1.0 mmol/L • Harmine intervention group: 10.0 μmmol/L • 2. A control test is taken as a comparative example • (1) High-fat fed C57BL6/J mice • Ordinary feed feeding group, and high-fat feed PBS gavage group • (2) Type 2 diabetes model db/db mice • Control feeding group and PBS gavage group • (3) Cell line of mouse insulinoma islet β cells (Beta-TC-6) • Blank control group, and palmitic acid (PA) intervention negative control group • (4) Mouse islet β primary cell • Blank control group, and PA intervention negative control group • Results are as follows:
(II) In the animal test, the therapeutic effect of the valeric acid on diabetes is observed by using Leptin receptor gene deficient db/db mice (purchased from Nanjing Junke Biotechnology Co., Ltd.) as test subjects.

[4] = 8 weeks of intervention, HF-V vs HF-PBS control group

CA19-9 in mouse serum ([2]; HF+VA mouse serum): < 0.600 U/mL
CEA in mouse serum ([2]; HF+VA mouse serum): < 0.200 U/mL
cancer invasion ([2]; from CEA and CA19-9 serum markers): does not occur
Compound: CCCCC(=O)O [valeric acid]
areas under OGTT-2h blood glucose curves [1, 4]: significantly lower
fasting blood glucose [1, 4]: significantly lower
fasting insulin contents [1, 4]: significantly lower
weights of mice ([1]; valeric acid 75 mg/kg/d gavage (as sodium valerate), vs HF-PBS group, after the sixth week): significantly lower
area under the OGTT curve ([3]; compared with metformin and Harmine groups): smallest
decrease of fasting blood glucose ([3]; compared with the PBS control group): ~10 mmol/L
insulin secretion ([3]; comparison among groups / vs PBS control group): best
weights ([3]; vs PBS control group): decreased significantly
